Results from PMC5267425, “Identification of small molecule modulators of HIV-1 Tat and Rev protein accumulation” (Retrovirology, 2017).

Key:
Type in all cases: cell-based
[1] = system: HIV-1 Tat (p14, p16) and Gag; test: Rescue of Tat/Gag expression by proteasome inhibitor MG132; settings: MG132 10 μM for 8 h in the presence of compound
Procedure: (§1) To assess effect of compounds on HIV-1 Tat stability, the decay of HIV-1 Tat levels was compared between DMSO-treated and compound-treated protein lysates in the presence of cycloheximide. In the first set of experiments, HIV-1 gene expression was induced with doxycylin (dox) for 24 h then 10 μg/mL cycloheximide was added to block new protein synthesis in combination with either DMSO or the compounds. Cells were harvested every 2 h and Tat protein levels measured by western blot. Quantification of the relative intensity of the detected bands was performed using ImageLab software (BioRad) and normalized to corresponding bands of the loading control (GAPDH) from at least three independent experiments. To determine whether the compounds’ effect on HIV-1 gene expression could be reversed by inhibition of the proteasome, compound treatment assay was performed as previously described with the addition of 10 μM MG132 (Sigma-Aldrich) to compound-treated cells 8 h prior to harvesting. Equal amounts of protein were run on 13 or 14% gels by SDS-PAGE, blotted and probed with antibodies for Tat and GAPDH. Quantification of the relative intensity of the detected bands was performed using ImageLab software (BioRad) and normalized to corresponding bands of the loading control (GAPDH) from at least three independent experiments.

[2] = system: HIV-1 Tat; test: Tat protein decay in the presence of cycloheximide; settings: cycloheximide 10 µg/ml (Figure S4)
Procedure: as §1

[3] = XTT cell metabolism/viability assay, HeLa; settings: human, HeLa rtTA HIV∆Mls cells
Procedure: Effects of compound treatment on cellular metabolism was assessed by an XTT-based in vitro toxicology assay kit (Sigma-Aldrich) or Trypan blue exclusion (Life Technologies) as proxy for degree of cytotoxicity and expressed relative to DMSO control treatment. For measurement of cell viability using XTT, culture media was removed after 24, 72, and 96 h of compound treatment, replaced with 20% XTT solution and incubated at 37 °C in a 5% CO2 humidified incubator for 2–6 h, and relative cell viability was measured in compound treated cells relative to DMSO-treated cells. Cell viability measurements in CEM-GXR cells are described above.

Cc1cc(NCc2cccnc2)n2ncc(-c3ccc(Cl)cc3)c2n1 [Compound 791, 3-(4-chlorophenyl)-5-methyl-N-(3-pyridinylmethyl)pyrazolo[1,5-a]pyrimidin-7-amine]
accumulation of both Tat isoforms on addition of MG132 [1]: significant accumulation | half-life of HIV-1 Tat relative to DMSO [2]: do not alter | CC50 [3]: > 40 µM

O=C(NC(=S)NNC(=O)c1ccccc1O)c1ccc(-c2ccccc2)cc1 [Compound 833, N-([2-(2-hydroxybenzoyl)hydrazino]carbonothioyl}-4-biphenylcarboxamide]
accumulation of both Tat isoforms on addition of MG132 [1]: significant accumulation | half-life of HIV-1 Tat relative to DMSO [2]: do not alter | CC50 [3]: ≥ 40 µM

COc1ccc(C=NNC(=O)c2ccccc2O)cc1O [Compound 892, 2-hydroxy-N′-(3-hydroxy-4-methoxybenzylidene)benzohydrazide]
accumulation of both Tat isoforms on addition of MG132 [1]: significant accumulation | half-life of HIV-1 Tat relative to DMSO [2]: do not alter | CC50 [3]: > 40 µM
